Data reported in US20250064809A1, “Inhibitors of Mutant RET Kinases for use in Treating Cancer” (Stemline Therapeutics, Inc., priority 2021, published 2025).

Legend:
Ba/F3 KIF5B-RET = experiment: In vitro cell viability assay (CellTiter-Glo); format: cell-based; details: Mus musculus, BaF3, 72 h; Ba/F3 KIF5B-RET (wild type RET), 3 days
Ba/F3 KIF5B-RET-G810R = experiment: In vitro cell viability assay (CellTiter-Glo); format: cell-based; details: Mus musculus, BaF3, 72 h, 3 days
Ba/F3 KIF5B-RET-G810C = experiment: In vitro cell viability assay (CellTiter-Glo); format: cell-based; details: Mus musculus, BaF3, 72 h, 3 days
Ba/F3 KIF5B-RET-G810S = experiment: In vitro cell viability assay (CellTiter-Glo); format: cell-based; details: Mus musculus, BaF3, 72 h, 3 days
[1] = tested on: Ba/F3 cells expressing KIF5B-RET with a G810 RET mutant domain; experiment: In vitro cell viability assay, mutant RET kinase cell lines compared to wild type; format: cell-based, mouse; details: Ba/F3 KIF5B-RET G810R, G810C, G810S versus wild type

| IC50 (Ba/F3 KIF5B-RET) | IC50 (Ba/F3 KIF5B-RET-G810R) | IC50 (Ba/F3 KIF5B-RET-G810C) | IC50 (Ba/F3 KIF5B-RET-G810S) | increase in IC50 values against mutant RET kinase cell lines as compared to wild type RET kinase cell lines [1] | Structure (SMILES) |
| --- | --- | --- | --- | --- | --- |
| 0.0296 µM | 1.3 µM | 0.551 µM | 0.0905 µM | 3-44 fold | CO[C@]1(C(=O)N[C@@H](C)c2ccc(-n3cc(F)cn3)nc2)CC[C@H](c2nc(C)cc(Nc3cc(C)[nH]n3)n2)CC1 [Pralsetinib, pralsetinib] |
| 0.0244 µM | 0.986 µM | 1.08 µM | 0.204 µM | 8-44 fold | COc1ccc(CN2C3CC2CN(c2ccc(-c4cc(OCC(C)(C)O)cn5ncc(C#N)c45)cn2)C3)cn1 [Selpercatinib, selpercatinib] |
